Data: US11116731B2, “Hydrogen sulfide and/or nitrite in the treatment and prevention of atrial fibrillation” (Board of Supervisors of Louisiana State University and …, priority 2017, dated 2021)

Tested on: CSE knockout mice
Experiment: Inducible persistent AF (AF lasting more than 90 seconds after induction) in CSE knockout mice
Type: in vivo
Conditions: for risk of inducible persistent AF: 200 ug/kg retro-orbitally (i.e. I.V.) for three days
Text: Homocysteine induced reactive oxygen species reduces the ability of eNOS to properly function in generating nitric oxide (NO).
FIGS. 11 to 12B show mouse Mouse Electrophysiology and AF induction in mice and persistent AF and short run or non-persistent AF.

Row | SMILES | persistent AF (FIGS. 26A, 26B, 34A to 35B) (female CSE KO mice) | AF (electro cardio rhythms, FIGS. 25A and 25B) (female CSE KO mice, nitrite treated vs PBS) | incidence of inducible persistent AF (female CSE knockout mice, 165 ug/kg intraperitoneal for 3 days) | risk of inducible persistent AF (CSE knock out male mice) | risk of inducible persistent AF (female CSE knock out mice)
1 | [N]=O [NO, nitric oxide] | Reduced |  |  |  | 
2 | O=NO [sodium nitrite] | dramatically reduces | reduced | decrease |  | 
3 | C=CCSSSCC=C [DATS, diallyl trisulfide] |  |  |  | reduced to near wild type levels | no noticeable risk reduction
